This assay has as its target T1, Farnesyl-protein transferase (FTase) (Bos taurus, UniProt P29702+P49355).
T1 construct: Farnesyl-protein transferase (FTase) from bovine brain was chromatographed; from tissue; host or cells: bovine brain
The assay is described as follows: In Vitro Inhibition of Ras Farnesyl Transferase (inhibition of Ras-CVLS farnesylation). It counts as biochemical. Particulars: partially purified bovine brain FTase; Ras-CVLS 3.5 μM, 0.25 μM [3H]FPP. The procedure:
Farnesyl-protein transferase (FTase) from bovine brain was chromatographed on DEAE-Sephacel (Pharmacia, 0-0.8M NaCl gradient elution), N-octyl agarose (Sigma, 0-0.6M NaCl gradient elution), and a mono Q HPLC column (Pharmacia, 0-0.3M NaCl gradient). Ras-CVLS at 3.5 μM, 0.25 μM [^3 H]FPP, and the indicated compounds were incubated with this partially purified enzyme preparation. The FTase inhibitory data presented below is a measurement of the ability of the test compound to inhibit Ras farnesylation in vitro.

We go through two compounds from US5260479A, “Inhibitors of farnesyl protein transferase” (Merck & Co., Inc., priority 1991, dated 1993).

As a reminder, the IC50 is the point on the concentration scale where inhibition reaches its midpoint. Low values mean greater potency, high ones weaker potency.

SMILES strings stand for the structures.

Take `CCCCCCCCCCCCCC/C(C(=O)O)=C(/C)C(=O)O` [A]: inhibition was half-maximal at 7.7 µM (IC50). That is a single-digit micromolar value.

The compound `C=C(C(=O)O)C(CCCCCCCCCCCCCC)C(=O)O` (centres unmarked) [B] had an IC50 of 1.7 µM.
